{"source": "patent US9988375B2", "about": "“Inhibitors of lysine gingipain” (priority 2014, dated 2018)", "key": {"trypsin": {"target": "trypsin (Homo sapiens (Human), UniProt P07477)", "assay": "Trypsin inhibition", "type": "biochemical", "experimental": "(§1) The inhibitory of activity of compounds described herein was tested against Kgp, RgpB, and trypsin."}, "abeta 42": {"system": "abeta 42", "assay": "Brain abeta 42 ELISA in mice orally infected with P. gingivalis", "type": "in vivo, Balb/cJ mice", "settings": "subcutaneously three times per day on days 21-42", "description": "Female Balb/cJ mice were obtained from Taconic and allowed to acclimate. 43-44 week old mice were challenged orally with 10^9 CFU W83 P. gingivalis or a P. gingivalis strain lacking expression of Kgp every other day for 42 days. Compound 2 or vehicle (2% DMSO) was given subcutaneously three times per day on days 21-42. On day 42 mice were sacrificed and the brain removed and frozen. A sample including hippocampal tissue was lysed in RIPA buffer with protease inhibitors and analyzed for Abeta42 expression with the Amyloid beta 42 ELISA Kit, Mouse (Life Technologies)."}, "[1]": {"system": "differentiated SHSY-5Y cells", "assay": "Gingipain-induced death of differentiated SH-SY5Y cells", "type": "cell-based", "settings": "100 nM Kgp and/or RgpB for 24 hours", "experimental": "SH-SY5Y neuroblastoma cells were cultured and differentiated in the presence of 5 uM retinoic acid based on established methods [Saberi S., et al. Cell Mol Neurobiol 2013. 33: 747-751]. Differentiation into neuronal cells was verified by observation of neurite outgrowth. The differentiated cells were exposed to 100 nM Kgp and/or RgpB for 24 hours, in the presence or absence of Kgp inhibitors. Results were recorded using a digital microscope camera (FIG. 1C, FIG. 2C). Gingipains are toxic to cells while COR compounds prevent the cytotoxicity."}, "lysine gingipain (Kgp)": {"target": "lysine gingipain (Kgp) (Porphyromonas gingivalis (strain ATCC 33277 / DSM 20709 / CIP 103683 / JCM 12257 / NCTC 11834 / 2561), UniProt B2RLK2)", "assay": "Lysine gingipain (Kgp) fluorogenic inhibition assay", "type": "biochemical", "experimental": "The capacities of compounds of the present invention to inhibit the activity of lysine gingipain were measured in a fluorogenic assay similar to those described in Barret Biochemical Journal. 1980, 187(3), 909. The specific assay conditions were as follows. Buffer: pH=7.5, 100 mM Tris-HCl, 75 mM NaCl, 2.5 mM CaCl2, 10 mM cysteine, 1% DMSO after all additions. Protein: 0.1 nM Kgp, isolated from culture of Porphyromonas gingivalis, as described in Pike et al. J. Biol. Chem. 1994, 269(1), 406, and Potempa and Nguyen. Current Protocols in Protein Scienc. 2007, 21.20.1-21.20.27. Fluorogenic substrate: 10 uM Z-His-Glu-Lys-MCA. Time=90 minutes. Temperature=37° C. Each compound: 10 concentrations, starting at either 100 uM or 100 nM, with lower concentrations generated by serial 3-fold dilutions. By testing a range of concentrations for each compound, the concentration required to inhibit the activity of lysine gingipain by 50% (the “IC50”) was determined. Under the described assay conditions, signal-to-noise was excellent, and Z factor was greater than 0.6.\nas §1"}, "SHSY5Y cells": {"system": "SHSY5Y cells", "assay": "P. gingivalis-induced toxicity in SHSY5Y cells in vitro", "type": "cell-based", "settings": "compared to the antibiotic moxifloxacin"}, "RgpB": {"target": "RgpB (Porphyromonas gingivalis (strain ATCC BAA-308 / W83), UniProt P95493)", "assay": "RgpB inhibition", "type": "biochemical", "experimental": "as §1"}}, "note": "Entries after “also recorded” stand apart in the source; their conditions may differ. Like-named read-outs stand apart in the source and are kept apart here."}
{"smiles": "NCCCC[C@H](NC(=O)C1CCCCC1)C(=O)c1nc2ccccc2s1", "note": "[Compound 2, N-[(1S)-5-amino-1-(1,3-benzothiazole-2-carbonyl)pentyl]cyclohexanecarboxamide]", "values": [{"measurement": "IC50", "setting": "trypsin", "result": 5000, "unit": "nM"}, {"measurement": "brain levels of abeta 42 (ELISA)", "setting": "abeta 42", "result": "resolved; also recorded: increase in abeta42 that was not apparently"}, {"measurement": "prevention of gingipain-induced death of differentiated SHSY-5Y cells", "setting": "[1]", "result": "prevents; also recorded: more effective; also recorded: effective at preventing cell death"}, {"measurement": "IC50", "setting": "lysine gingipain (Kgp); read-out: Kgp IC50", "result": "1 to 10", "unit": "nM"}]}
{"smiles": "NCCCC[C@H](NC(=O)C1CCCC1)C(=O)COc1c(F)c(F)cc(F)c1F", "note": "[Compound 43, N-[(1S)-5-amino-1-[2-(2,3,5,6-tetrafluorophenoxy)acetyl]pentyl]cyclo-pentanecarboxamide]", "values": [{"measurement": "protection of SHSY5Y cells from P. gingivalis-induced toxicity", "setting": "SHSY5Y cells", "result": "protects"}, {"measurement": "IC50", "setting": "RgpB", "result": "> 475", "unit": "nM"}, {"measurement": "IC50", "setting": "lysine gingipain (Kgp); 0.1 nM Kgp, 10 uM Z-His-Glu-Lys-MCA, 90 minutes, 37° C., pH 7.5, read-out: Kgp IC50 average", "result": "≤ 1", "unit": "nM"}, {"measurement": "lysine gingipain IC50 value", "setting": "lysine gingipain (Kgp); in words", "result": "sub-nanomolar"}]}
